Source: US5300639A, “Thiazolo [5,4-b]azepine compounds” (Takeda Chemical Industries, Ltd., priority 1992, dated 1994)
Where a name gives a salt, the structure may show the parent alone.

Columns and labels:
[1] = test system: lipoperoxide formation in rat's brain homogenate; test: Inhibitory action for lipoperoxide formation in rat's brain homogenate (thiobarbituric acid method); assay type: biochemical; conditions: read-out: IC50 (M) × 10^-7
Method: According to the method by Suno et al. (Japan J. Pharmacol., 35, 196(1984) , the concentration of the compound necessary for 50% inhibition of lipoperoxide formation in rat's brain homogenate was determined by examining the lipoperoxide formation using the thiobarbituric acid method. The results obtained are shown in Table 3.

[2] = molecular target: T1, Leukotriene D4 (LTD4) receptor (Cavia porcellus, UniProt Q2NNR5); test: Leukotriene D4 (LTD4) receptor antagonism ([3H]LTD4, guinea pigs' lung membrane fraction); assay type: binding, guinea pig; conditions: read-out: Inhibition rate (%) LTD4 receptor; for inhibition at 1 µM: 10^-6 M; for inhibition at 0.1 µM: 10^-7 M; for inhibition at 0.01 µM: 10^-8 M
T1 construct: guinea pigs' lung membrane fraction; from tissue; host or cells: guinea pig lung membrane fraction
T1 sequence (Q2NNR5 1-340): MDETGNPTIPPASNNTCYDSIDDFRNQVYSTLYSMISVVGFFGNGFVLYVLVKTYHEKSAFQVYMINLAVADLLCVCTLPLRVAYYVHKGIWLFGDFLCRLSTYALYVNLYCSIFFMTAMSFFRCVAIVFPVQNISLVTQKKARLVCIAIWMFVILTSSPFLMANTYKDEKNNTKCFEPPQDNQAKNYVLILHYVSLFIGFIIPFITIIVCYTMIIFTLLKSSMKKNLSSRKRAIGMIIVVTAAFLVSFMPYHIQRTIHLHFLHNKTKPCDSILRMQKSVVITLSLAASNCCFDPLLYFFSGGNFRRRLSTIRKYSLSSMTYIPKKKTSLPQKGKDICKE
Method: According to the method by S. S. Pong , and R. N. DeHaven (Proceedings of the National Academy of Sciences of the United States of America, 80, 7415-7419 (1983) , the leukotriene D4 (LTD4) receptor antagonism was measured by using [^3 H]LTD4 and guinea pigs' lung membrane fraction. The results are shown in Table 5.

5-lipoxygenase = molecular target: T2, 5-lipoxygenase (Rattus norvegicus, UniProt P12527); test: Inhibitory action on 5-lipoxygenase (5-HETE formation in RBL-1 cells); assay type: cell-based; conditions: read-out: Inhibition rate (%) of 5-HETE formation; for inhibition at 1 µM: 10^-6 M; for inhibition at 0.1 µM: 10^-7 M; for inhibition at 0.01 µM: 10^-8 M
T2 construct: endogenous in cells; host or cells: RBL-1 (rat basophilic leukemia cells)
T2 sequence (P12527 1-673): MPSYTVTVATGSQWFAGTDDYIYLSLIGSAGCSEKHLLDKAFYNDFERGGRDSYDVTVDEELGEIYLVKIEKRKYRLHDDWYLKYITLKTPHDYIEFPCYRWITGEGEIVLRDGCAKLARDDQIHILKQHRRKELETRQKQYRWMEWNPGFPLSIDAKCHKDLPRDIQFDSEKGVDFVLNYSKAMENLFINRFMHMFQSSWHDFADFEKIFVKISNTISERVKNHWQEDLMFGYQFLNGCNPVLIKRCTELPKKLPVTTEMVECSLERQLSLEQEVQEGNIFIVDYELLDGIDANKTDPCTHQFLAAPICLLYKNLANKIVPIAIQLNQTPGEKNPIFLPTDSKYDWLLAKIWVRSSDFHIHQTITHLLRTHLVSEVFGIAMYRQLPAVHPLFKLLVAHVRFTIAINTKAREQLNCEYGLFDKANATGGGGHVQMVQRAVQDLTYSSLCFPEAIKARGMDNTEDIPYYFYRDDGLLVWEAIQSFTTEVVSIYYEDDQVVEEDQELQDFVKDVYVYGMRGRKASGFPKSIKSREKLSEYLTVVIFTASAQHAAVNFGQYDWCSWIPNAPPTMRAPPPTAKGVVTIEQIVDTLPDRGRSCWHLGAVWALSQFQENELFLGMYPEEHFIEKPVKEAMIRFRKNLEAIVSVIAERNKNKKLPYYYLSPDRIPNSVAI
Method: RBL-1 cells (rat basophilic leukemia cells) of 10^7 were suspended in 0.9 ml of MCM (mast cell medium). […] The mixture was incubated at 37° C. for 5 minutes. Then, 0.1 ml of MCM containing 50 μg of arachidonic acid and 10 μg of calcium ionophore A-23187 was added and further the mixture was incubated at 37° C. for 15 minutes. After the reaction, 1 ml of ethanol was added, well shaken and subjected to high performance liquid chromatography to determine 5-HETE. The absorption at 240 nm due to 5-HETE was measured by an ultraviolet abosorption monitor. The inhibition rate of 5-HETE formation is represented by (1-b/a)×100, wherein a is the peak height or area in the absence of the compound (I) and b is that in the presence of the compound (I).

[3] = test system: Behavior change due to the spinal intrathecal injection of ferrous chloride in mice; test: Behavior change due to spinal intrathecal injection of ferrous chloride in mice; assay type: in vivo, Slc:ICR mouse; conditions: 100 mg/kg p.o., 30 min before i.t. ferrous chloride; for Average score, 100 mg/kg dose: scale 0 (normal) to 5 (death); for Inhibition rate (%): vs saline
Method: In male Slc : ICR mouse of 5 weeks age 10 mice per group were used. […] The evaluation point of behavior change was scored according to the following criterion.
The inhibition rate was shown based on the evaluation point under the above criterion. The test compound was orally administered 30 minutes before the i.t. injection of ferrous chloride.

[4] = test system: formation of HHT (12-hydroxyheptadeca-5,8,10-trienoic acid) in rat's platelet; test: Inhibitory action for the formation of HHT in rat's platelet; assay type: cell-based; conditions: rat platelet rich plasma, read-out: Inhibition rate (%) of HHT formation; for inhibition at 100 µM: 10^-4 M; for inhibition at 10 µM: 10^-5 M; for inhibition at 1 µM: 10^-6 M
Method: Eight ml of blood was gathered from the abdominal aorta of a rat (JcI : Wistar, male, 12-15 weeks age) subjected to abdominal incision under anesthesia by the use of 3.2 % sodium citrate (1 volume of sodium citrate solution to 9 volume of whole blood). The blood was centrifuged at 800 rpm for 10 minutes at room temperature to gather PRP (platelet rich plasma), and the residual blood was further centrifuged at 3000 rpm for 10 minutes to gather PPP (platelet poor plasma). The platelet number in PRP was measured and the PRP was adjusted by diluting with PPP so that the concentration of platelet was one million/μl. To 0.25 ml of the PRP, 125 μg of arachidonic acid and the test compound (the final concentration of 100 μM, 10 μM, 1 μM and 0.1 μM) were added, and the mixture was incubated at 37° C. for 15 minutes. After the reaction, 1.1 ml of ethanol was added, well shaken and centrifuged at 2000 rpm for 10 minutes to separate the supernatant. To 1 ml of the supernatant 1 ml of water was added and subjected to high performance liquid chromatography to determine HHT. The absorption at 240 nm due to HHT was measured by an ultraviolet absorption monitor. […]

| SMILES | IC50 [1] | inhibition at 1 µM (5-lipoxygenase) | inhibition at 0.1 µM (5-lipoxygenase) | inhibition at 0.01 µM (5-lipoxygenase) | inhibition at 100 µM [4] | inhibition at 10 µM [4] | inhibition at 1 µM [4] | other results |
| --- | --- | --- | --- | --- | --- | --- | --- | --- |
| Cc1ccc(C=Cc2nc3c(s2)NCCCC3)cc1 [Example 6, 2-(4-Methylstyryl)-5,6,7,8-tetrahydro-4H-thiazolo[5,4-b]-azepine] | 7e-07 M |  |  |  |  |  |  | inhibition at 1 µM [2]: 100%; inhibition at 0.1 µM [2]: 94.3%; inhibition at 0.01 µM [2]: 64.4% |
| CC(C)c1ccc(C=Cc2nc3c(s2)NCCCC3)cc1 [Example 8, 2-(4-Isopropylstyryl)-5,6,7,8-tetrahydro-4H-thiazolo[5,4-b]azepine] | 7e-07 M |  |  |  |  |  |  | inhibition at 1 µM [2]: 94.6%; inhibition at 0.1 µM [2]: 92.4%; inhibition at 0.01 µM [2]: 54.8% |
| O=[N+]([O-])c1ccc(C=Cc2nc3c(s2)NCCCC3)cc1 [Example 22, 2-(4-Nitrostyryl)-5,6,7,8-tetrahydro-4H-thiazolo-[5,4-b]azepine] |  | 100% | 49% | 4% |  |  |  |  |
| c1ccc2cc(-c3nc4c(s3)NCCCC4)ccc2c1 [Example 30, 2-(2-Naphthyl)-5,6,7,8-tetrahydro-4H-thiazolo [5,4-b]azepine] |  |  |  |  |  |  |  | inhibition at 1 µM [2]: 100%; inhibition at 0.1 µM [2]: 98.8%; inhibition at 0.01 µM [2]: 76% |
| C(C=Cc1nc2c(s1)NCCCC2)=Cc1ccccc1 [Example 21, 2-(4-Phenylbutadienyl)-5,6,7,8-tetrahydro-4H-thiazolo[5,4-b]azepine] | 7e-07 M |  |  |  |  |  |  | Average score, 100 mg/kg dose [3]: 1.7; Inhibition rate (%) [3]: 63.0% |
| c1csc(-c2nc3c(s2)NCCCC3)c1 [Example 31, 2-(2-Thienyl)-5,6,7,8-tetrahydro-4H-thiazolo[5,4-b]azepine] |  |  |  |  | 100% | 80% | 19% |  |
| O=[N+]([O-])c1ccc(-c2nc3c(s2)NCCCC3)cc1 [Example 24, 2-(4-Nitrophenyl)-5,6,7,8-tetrahydro-4H-thiazolo[5,4-b]azepine] |  | 93% | 53% | 26% |  |  |  |  |
| C(=Cc1nc2c(s1)NCCCC2)c1ccc2c(c1)OCO2 [Example 13, 2-(3,4-Methylenedioxystyryl)-5,6,7,8-tetrahydro-4H-thiazolo[5,4-b]azepine hydrochloride] |  |  |  |  |  |  |  | inhibition at 1 µM [2]: 100%; inhibition at 0.1 µM [2]: 92.5%; inhibition at 0.01 µM [2]: 61% |
| Clc1ccc(C=Cc2nc3c(s2)NCCCC3)cc1Cl [Example 20, 2-(3,4-Dichlorostyryl)-5,6,7,8-tetrahydro-4H-thiazolo[5,4-b]azepine] |  | 100% | 44% | 2% | 96% | 43% | 18% |  |
| COc1ccccc1C=Cc1nc2c(s1)NCCCC2 [Example 12, 2-(2-Methoxystyryl)-5,6,7,8-tetrahydro-4H-thiazolo [5,4-b)azepine oxalate] | 6e-07 M |  |  |  |  |  |  |  |
| CCOc1ccc(C=Cc2nc3c(s2)NCCCC3)cc1 [Example 7, 2-(4-Ethoxystyryl)-5,6,7,8-tetrahydro-4H-thiazolo[5,4-b]azepine] | 8e-07 M |  |  |  |  |  |  |  |
| COc1ccc(-c2nc3c(s2)NCCCC3)cc1 [Example 5, 2-(4-Methoxyphenyl)-5,6,7,8-tetrahydro-4H-thiazolo[5,4-b]azepine hydrochloride] |  |  |  |  |  |  |  | Average score, 100 mg/kg dose [3]: 0.9; Inhibition rate (%) [3]: 82.0% |
| c1ccc(-c2nc3c(s2)NCCCC3)cc1 [Example 26, 2-Phenyl-5,6,7,8-tetrahydro-4H-thiazolo[5,4-b]azepine] | 1.2e-06 M |  |  |  | 100% | 63% | 22% |  |
| Fc1ccccc1-c1nc2c(s1)NCCCC2 [Example 23, 2-(2-Fluorophenyl)-5,6,7,8-tetrahydro-4H-thiazolo [5,4-b]azepine] | 1.2e-06 M |  |  |  |  |  |  |  |
| COc1ccc(C=Cc2nc3c(s2)NCCCC3)cc1OC.Cl [Example 16, 2-(3,4-Dimethoxystyryl)-5,6,7,8-tetrahydro-4H-thiazolo[5,4-b]azepine hydrochloride] |  |  |  |  |  |  |  | Average score, 100 mg/kg dose [3]: 0.3; Inhibition rate (%) [3]: 94.0% |
| CS(=O)(=O)N1CCCCc2nc(-c3ccncc3)sc21 [Example 41, 4-Methanesulfonyl-2-(4-pyridyl)-5,6,7,8-tetrahydro-4H-thiazolo[5,4-b]azepin] |  |  |  |  | 87% | 63% | 23% |  |
| C(=Cc1nc2c(s1)NCCCC2)c1ccccc1 [Example 3, 2-Styryl-5,6,7,8-tetrahydro-4H-thiazolo[5,4-b]azepine] |  |  |  |  | 100% | 83% | 22% |  |
| COc1ccc(C=CC=Cc2nc3c(s2)NCCCC3)cc1 [Example 9, 2-[4-(4-Methoxyphenyl)butadienyl]-5,6,7,8-tetrahydro-4H-thiazolo [5,4-b]azepine] | 7e-07 M | 100% | 79% | 12% |  |  |  |  |
| COc1ccc(C=Cc2nc3c(s2)NCCCC3)cc1 [Example 2, 2-(4-Methoxystyryl)-5,6,7,8-tetrahydro-4H-thiazolo[5,4-b]azepine] |  | 100% | 56% | 14% | 100% | 58% | 16% | Average score, 100 mg/kg dose [3]: 1.2; Inhibition rate (%) [3]: 74.5% |
| C(=Cc1nc2c(s1)NCCCC2)c1ccccc1.O=C(O)C(=O)O [Example 28, 2-Styryl-5,6,7,8-tetrahydro-4H-thiazolo[5,4-b]azepine oxalate] | 7e-07 M | 95% | 56% | 9% |  |  |  | Average score, 100 mg/kg dose [3]: 1.1; Inhibition rate (%) [3]: 76.6% |
